From patent publication US20220401585A1, “A UROKINASE PLASMINOGEN ACTIVATOR RECEPTOR-TARGETING PEPTIDE” (RIGSHOSPITALET, priority 2019, published 2022)
Values belong to the compound of their own block, whether it stands above or below them. Primed or numbered codes have the meaning given here. [ ]: non-standard residue; d: D form. Cha = N[C@@H](CC1CCCCC1)C(=O)O; IRDye800CW′ = not defined here; AEEA = NCCOCCOCC(=O)O

What was measured:
[1] = Photostability under continuous laser exposure; assay type: physicochemical
Protocol: The photostability was evaluated by a factor 2 dilution series with four samples from 0.23-1.8 nM IRDye800-AE344 in 100 μL phosphate buffered saline (PBS) placed in a black 96-well plate. The well was placed in a black box with the Fluobeam mounted in the top at a distance of 23 cm from the well plate. Image acquisition was performed at 0 min, 10 min, 15 min, 20 min, 0.5 h, 1 h, 2 h, 3 h, 6 h, 10 h, 15 h, 24 h. Each dilution sample was normalized to time point 0 and the data from all four samples were pooled.

uPAR [2] = molecular target: T1, uPAR (Homo sapiens, UniProt Q03405); assay: In vivo binding specificity (competitive blocking, scrambled probe); set-up: endogenous in cells; species or system mice; details: 3 nmol, 1 h; for signal intensity compared to the active probe: orthotopic GBM
Protocol: The target specificity to uPAR was evaluated by two different methods: competitive blocking with the uPAR targeting peptide AE120 ((DChaFsrYLWSG)2-βAK) and IRDye800 conjugated to a scrambled peptide, AE354 (IRDye800CW-Glu-Glu-NH—CH2—CH2—O—CH2—CH2—O—CH2—CO—NH—CH2—CH2—O—CH2—CH2—O—CH2—CO-Asp-Cha-Glu-(D)Ser-(D)Arg-Tyr-Leu-Glu-Ser-OH) with similar peptide length as the active peptide. The competitive blocking dose of 1.4-2.8 mg AE120 was injected intraperitoneally 15-30 min prior to intravenous injection of 3 nmol IRDye800CW-AE344 and imaged at 1 h (n=5). The scrambled peptide was administered at 3 nmol and the animals were imaged after 1 h (n=4).
(§1) Images were analyzed and processed in ImageJ 1.52a, NIH, USA. Signal measurements were performed on the raw images generated by the Fluoptics system. Tumor signal was measured as a mean fluorescence intensity of the whole tumor and background signal was measured as the mean of a representative area with no tumor on the contralateral hemisphere. Presented pictures are contrast enhanced in ImageJ with the Contrast Enhancement (Saturated pixels: 0.3%).
Target sequence in this assay (Q03405 23-305): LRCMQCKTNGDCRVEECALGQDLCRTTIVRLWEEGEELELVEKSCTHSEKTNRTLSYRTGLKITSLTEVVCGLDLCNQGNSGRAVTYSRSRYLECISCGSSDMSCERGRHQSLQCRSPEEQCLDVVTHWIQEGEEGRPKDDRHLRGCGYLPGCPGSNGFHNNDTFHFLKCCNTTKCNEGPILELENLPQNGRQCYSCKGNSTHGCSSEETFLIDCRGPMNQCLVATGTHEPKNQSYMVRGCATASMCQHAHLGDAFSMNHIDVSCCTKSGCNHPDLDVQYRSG

orthotopic GBM = assay: Fluorescence-guided resection; assay type: in vivo, mouse; details: 6 nmol at 3 h, EleVision IR system
Protocol: Preoperatively, the tumor was visible on WL and NIR images (FIG. 15 upper panel). The surgeon performed the resection only assisted by WL until the surgeon considered all tumor tissues was removed. […] A video of fluorescence-guided surgery is also available in the online supplementary materials.
As should be understood from above, in FIG. 15 there is shown fluorescence-guided surgery (6 nmol IRDye800CW-AE344 at 3 h) performed with the EleVision™ IR system. Upper panel: Images were acquired prior to surgery. Middle panel: Pictures were acquired following surgery in white light and clearly visualizes remaining tumor tissue. The signal is more intense compared to upper panel and is due to the fact that the remaining tumor is now more exposed.

[3] = Acute toxicity, liver and kidney histology; set-up: species or system mice; details: mouse, in vivo
Source text: Liver and kidneys: Tissue was formalin fixed and paraffin embedded. Sections of 2-4 um thick were cut and a routine staining panel applied including: H&E, modified sirius, PAS and Masson trichome for both and additional PAS with silver for kidneys and PAS with diastase, iron, reticulin artisan and oxidised orcein for the livers. Livers were immunohistochemically stained, immunohistochemical evaluation on 3 μm thick sections was done using the CK7 antibody from Dako/Agilent, GA619 (clone OV-TL12/30) following the manufacturer's instructions. The staining took place on the Omnis from Agilent utilizing the EnVision Flex+ detection kit (GV800). The primary antibody was diluted using Antibody Diluent (Dako DM830) and were incubated for 20 minutes. The sections were counterstained with hematoxylin.

[4] = tested on: orthotopic GBM (U-87 MG-luc2 xenograft); assay: NIR fluorescence imaging of orthotopic GBM (dynamic imaging, TBR and MFI); assay type: in vivo, mice
Protocol: All experimental procedures in animals were carried out in accordance with the approval by The Animal Experiments Inspectorate, Denmark. 7-10-week-old female nude mice (strain: Rj:NMRI-Foxn1nu/nu, JANVIER LABS, France) were orthotopically xenografted with U-87 MG-luc2 cells. Prior to any surgical procedure, the animals were anesthetized with Hypnorm (0.315 mg/ml fentanyl, 10 mg/ml fluanisone)+Midazolam (5 mg/ml)+sterile water in the ratio 1:1:2 by subcutaneous injection of 0.01 ml/g body weight of the solution.
The orthotopic GBM tumor model was established by inoculation of 500.000 cells in 10 μL ice cold PBS in the right hemisphere (1.5 mm lateral and 0.5 mm posterior to the bregma at 2 mm depth) using a stereotaxic frame (KOPF INSTRUMENTS, Tujunga, Calif., USA) with the automated microinjection pump UMP3 (WPI, Sarasota, Fla., USA). The cells were injected over 5 min with the syringe kept in place for further 3 min before retraction. Tumor growth was subsequently monitored on MRI with the BioSpec 7T (Bruker, Billerica, Mass., USA) with axial and coronal T2-weighted sequences. When the tumor size reached 2-17 mm^3, the animals were included in the fluorescence imaging protocol.
All image acquisition was performed with the Fluobeam system with (Fluosoft version: 2.2.1) (Fluoptics, Grenoble, France). To characterize the in vivo biodistribution and tumor imaging properties, IRDye800-AE344 was administered through tail vein injection into all the GBM bearing mice (n=35) at four different doses: 1 nmol, 3 nmol, 6 nmol, and 12 nmol. Two mice were sacrificed for each time point and the brain was removed and cross sectioned through the tumor for imaging. […] Accordingly, image acquisition was performed at following time points after injection:
1 nmol: 0.5 h, 1 h, and 2 h
3 nmol: 1 h, 2 h, 3 h, and 5 h
6 nmol: 1 h, 3 h, 6 h, and 12 h
as §1
Pathological assessment was used to evaluate the colocalization of the fluorescence signal and cancer cells (sens+spec). The cross sectioned brain specimens from the fluorescence imaging were either paraffin embedded for H&E and IHC staining, or cryostat sectioned for fluorescence microscopy. […]
Cryostat sectioning was performed by fixation of the specimen in Tissue-Tek O.C.T. on dry ice. The fixed tissue was sliced axially and mounted on slides for immediate fluorescence imaging.

uPAR [5] = molecular target: T1, uPAR; assay: SPR inhibition of uPAR wt binding to immobilized pro-uPA; details: inhibition of uPAR binding to immobilized pro-uPA S356A, 20° C.
Protocol: Covalent immobilization of purified human prouPA^S356A—was accomplished by injecting 12.5 μg/ml protein dissolved in 10 mM sodium acetate (pH 5.0) over a CM5 chip that had been pre-activated with NHS/EDC (N-ethyl-N′[3-[…])propyl]-carbodiimide), aiming at a surface density of >5000 resonance units (RU) corresponding to 100 fmols/mm^2. After coupling the sensorchip was deactivated with 1 M ethanolamine. Binding of purified human uPAR as analyte was measured from 4 nM to 0.25 nM at 20° C. using 10 mM HEPES, 150 mM NaCl, 3 mM EDTA (pH 7.4) containing 0.05% (v/v) surfactant P20 as running buffer at a flow rate of 50 μl/min. […]
Surface plasmon resonance (SPR) was applied to determine the IC50-value of IRDye800-AE344 on the uPAR·uPA interaction in solution using a Biacore 3000 instrument essentially as described. […] A standard curve was measured in parallel (2-fold dilution of uPAR covering 0.06 nM to 2 nM) including one repeated concentration point at the end to validate the biological integrity of the sensor chip. […] The parent nonamer peptide antagonist AE105 (Asp-Cha-Phe-D-Ser-D-Arg-Tyr-Leu-Trp-Ser-OH) was analyzed in parallel as positive control and the closed uPAR^H47C-N259C was used as negative control as its uPA binding cavity cannot accommodate AE105.
Target sequence in this assay (Q03405 23-305 limits assumed): as the sequence (Q03405 23-305) above

Compound: CC(C)C[C@H](NC(=O)[C@H](Cc1ccc(O)cc1)NC(=O)[C@@H](CCCNC(=N)N)NC(=O)[C@@H](CO)NC(=O)[C@H](Cc1ccccc1)NC(=O)[C@H](CC1CCCCC1)NC(=O)[C@H](CC(=O)O)NC(=O)COCCOCCNC(=O)COCCOCCNC(=O)[C@H](CCC(=O)O)NC(=O)[C@H](CCC(=O)O)NC(=O)CCCCC[N+]1=C(/C=C/C2=C(Oc3ccc(S(=O)(=O)O)cc3)C(=C/C=C3/N(CCCCS(=O)(=O)[O-])c4ccc(S(=O)(=O)O)cc4C3(C)C)/CCC2)C(C)(C)c2cc(S(=O)(=O)O)ccc21)C(=O)N[C@@H](Cc1c[nH]c2ccccc12)C(=O)N[C@@H](CO)C(=O)O [IRDye800CW-AE344, IRDye800CW-Glu-Glu-O2Oc-O2Oc-Asp-Cha-Phe-D-Ser-D-Arg-Tyr-Leu-Trp-Ser-OH]
- preserved fluorescence intensity ([1]; after continuous laser exposure for 1 h): 84%
- preserved fluorescence intensity ([1]; after continuous laser exposure for 2 h): 62%
- normalized TBR (ref: active probe) (uPAR [2]; blocked with AE120): 0.70
- tumor-to-background ratio (TBR) (uPAR [2]; blocked with AE120): 4.6
- normalized TBR (ref: active probe) (uPAR [2]; probe alone): 1.00
- tumor-to-background ratio (TBR) (uPAR [2]; probe alone): 6.6
- signal intensity compared to the active probe (uPAR [2]; competitive blocking with AE120): lower signal intensity
- outcome of fluorescence-guided surgery (orthotopic GBM): complete tumor resection
- pathological assessment of the kidneys and the liver [3]: no pathological findings
- background MFI ([4]; 6 nmol, 1 h): 24 a.u.
- background MFI ([4]; 6 nmol, 3 h): 11 a.u.
- decrease in background MFI ([4]; 6 nmol, from 1 h to 3 h): 54%
- visualization of orthotopic GBM through intact brain on NIR imaging ([4]; in vivo cancer imaging): clearly visualized

- IC50 (uPAR [5]): 5.7 ± 0.5 nM
Compound: EE-O2Oc-O2Oc-DChaFsrYLWS-NH2 [AE347]

Compound: IRDye800CW-Glu-Glu-NH—CH2—CH2—O—CH2—CH2—O—CH2—CO—NH—CH2—CH2—O—CH2—CH2—O—CH2—CO-Asp-Cha-Glu-(D)Ser-(D)Arg-Tyr-Leu-Glu-Ser-OH ({IRDye800CW′}-EE[AEEA][AEEA]D[Cha]E[dS][dR]YLES-OH) [IRDye800CW-AE354, reference compound]
- normalized TBR values (FIG. 16C) (uPAR [2]; probe alone): 3.4
- signal intensity compared to the active probe (uPAR [2]; probe alone): lower signal intensity
